We go through five molecules from ChEMBL document CHEMBL3272227, “Conformationally restricted analogs of histamine H1 receptor antagonists: trans and cis-1-benzyl-3-dimethylamino-6-phenylpiperidine” (J Med Chem, 1976).

Assay [1] deals with Histamine H1 receptor (Cavia porcellus) (UniProt P31389). The experiment in a line: Antagonist activity at histamine H1 receptor in guinea pig ileum assessed as inhibition of histamine-induced contraction at 10 nM treated for 15 mins prior to histamine challenge. In kind it is tissue-based.
Sequence of Histamine H1 receptor (Cavia porcellus) (P31389 whole entry): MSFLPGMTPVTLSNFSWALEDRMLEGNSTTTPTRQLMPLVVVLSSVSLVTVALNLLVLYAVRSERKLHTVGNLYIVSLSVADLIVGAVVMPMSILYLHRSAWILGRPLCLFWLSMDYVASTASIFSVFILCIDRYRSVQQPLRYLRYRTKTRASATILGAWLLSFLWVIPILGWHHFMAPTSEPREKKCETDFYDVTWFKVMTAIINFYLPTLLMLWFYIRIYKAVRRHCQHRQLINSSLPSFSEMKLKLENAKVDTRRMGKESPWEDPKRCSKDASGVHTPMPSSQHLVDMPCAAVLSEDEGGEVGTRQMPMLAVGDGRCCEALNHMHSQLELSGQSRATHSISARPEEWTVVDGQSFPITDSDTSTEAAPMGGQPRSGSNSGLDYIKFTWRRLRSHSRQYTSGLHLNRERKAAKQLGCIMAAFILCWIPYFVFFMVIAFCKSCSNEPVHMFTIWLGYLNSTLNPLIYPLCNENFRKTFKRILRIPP
The target in assay [2] is Histamine N-methyltransferase (Cavia porcellus, UniProt Q9EST2). The experiment in a line: Inhibition of histamine N-methyltransferase in guinea pig brain using S-adenosyl-L-methionine-14C as substrate by scintillation spectrophotometer.
Sequence of Histamine N-methyltransferase (Q9EST2 whole entry): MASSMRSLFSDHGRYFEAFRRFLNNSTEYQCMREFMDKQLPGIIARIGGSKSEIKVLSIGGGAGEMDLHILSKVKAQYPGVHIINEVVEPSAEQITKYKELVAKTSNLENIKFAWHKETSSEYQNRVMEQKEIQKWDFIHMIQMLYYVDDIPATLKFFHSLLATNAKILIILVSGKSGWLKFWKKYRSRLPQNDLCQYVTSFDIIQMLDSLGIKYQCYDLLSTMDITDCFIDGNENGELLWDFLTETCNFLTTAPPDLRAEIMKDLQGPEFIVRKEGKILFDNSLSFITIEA
Assay [3] concerns the target Histamine H1 receptor (Cavia porcellus) (UniProt P31389). In words: Antagonist activity at histamine H1 receptor in guinea pig ileum assessed as inhibition of histamine-induced contraction treated for 15 mins prior to histamine challenge. In kind it is tissue-based.
The test system of assay [4] is Ileum. In words: Inhibition of barium chloride-induced contraction in guinea pig ileum at 2 uM. In kind it is functional. To be noted: Cavia porcellus.
The test system of assay [5] is Ileum. In words: Inhibition of acetylcholine-induced contraction in guinea pig ileum treated for 15 mins prior to acetylcholine challenge. In kind it is functional. To be noted: Cavia porcellus, read-out: ED50 (the source's name).
For assay [6], the system named is Ileum. The experiment in a line: Inhibition of barium chloride-induced contraction in guinea pig ileum at 5 uM. It counts as functional. To be noted: Cavia porcellus.
Assay [7] addresses Histamine H1 receptor (Cavia porcellus) (UniProt P31389). In words: Antagonist activity at histamine H1 receptor in guinea pig ileum assessed as inhibition of histamine-induced contraction at 50 nM treated for 15 mins prior to histamine challenge. In kind it is tissue-based.
Assay [8] relates to Ileum. The experiment in a line: Inhibition of acetylcholine-induced contraction in guinea pig ileum at 0.1 uM treated for 15 mins prior to acetylcholine challenge. In kind it is functional, tissue-based. To be noted: Cavia porcellus.
Assay [9] concerns the target Histamine H1 receptor (Cavia porcellus) (UniProt P31389). In words: Antagonist activity at histamine H1 receptor in guinea pig ileum assessed as inhibition of histamine-induced contraction at 0.1 uM treated for 15 mins prior to histamine challenge. In kind it is tissue-based.

The source made the active and inactive calls. The calls are words filed in the database; no cut-off is given here.

On to `CN(C)[C@H]1C[C@H](c2ccccc2)N(c2ccccc2)C1` (relative stereo), for which, in assay [1], the inhibition came out at 85%.

In assay [2], `CN(C)[C@@H]1CC[C@H](c2ccccc2)N(Cc2ccccc2)C1` (relative stereo) registered a Ki of 31.6 µM. The ED50 in [3] is 1.83 µM. The inhibition at 2 µM in assay [4] was found to be 50%. In assay [5], the EC50 amounted to 1.45 µM.

Turning to `CN(C)[C@H]1CC[C@H](c2ccccc2)N(Cc2ccccc2)C1` (relative stereo), the Ki in assay [2] stood at 247 µM. In assay [3], the ED50 stood at 6.72 µM. The EC50 in [5] was determined as 2.9 µM. At 5 µM the inhibition in assay [6] was 39%.

Take `CN(C)[C@@H]1C[C@H](c2ccccc2)N(c2ccccc2)C1` (relative stereo): the inhibition in [7] came to 45%.

Regarding `CN(C)CCN(Cc1ccccc1)c1ccccn1`, in assay [8], the inhibition result was “inactive”. The inhibition in assay [9] was found to be 66%.

The term inhibition denotes the change of the read-out against control, counted positive when it falls. A word on the Ki: it is the dissociation constant of the complex between target and ligand, obtained from inhibition or displacement. A low value points to higher affinity.
